The record followed here is paper PMC12388884, “Discovery of Small-Molecule PD-L1 Inhibitors via Virtual Screening and Their Immune-Mediated Anti-Tumor Effects” (Pharmaceuticals, 2025).

A word on the pKd: it is the negative decadic logarithm of the Kd, by convention in mol/L.

In this test the target is T1, PD-L1 (Homo sapiens, UniProt Q9NZQ7).
T1 construct: gene CD274
The experiment in a line: bio-layer interferometry (BLI), immobilized recombinant human PD-L1, […] global kinetic fit. The format is binding. For orientation: BLI is a label-free optical method that tracks binding on a fibre tip over time.

pKd: −log10 of the molar value. Numbered stars: 1 amine (or outer) side, 2 acyl side, 3 side chain; on linkers, the order of the positions; unused ones are H or OH. Bridge positions count the residues as written; N and C are the ends. Square brackets hold non-standard residues; d marks the D form. Peptide text beside a SMILES is read from it. * marks the point of attachment. pTerphenylCO(4''-OnC5H11) = CCCCCOc1ccc(-c2ccc(-c3ccc(C(=O)*)cc3)cc2)cc1; Orn(4R-OH,5R-OH) = O=C([C@H](C[C@@H](O)[C@@H](O)N[*:3])N[*:1])[*:2]; hTyr(3S-OH,4S-OH) = N[C@H](C(=O)O)[C@H](O)[C@@H](O)c1ccc(O)cc1; Pro(3S-OH,4S-Me) = C[C@H]1CN[C@H](C(=O)O)[C@H]1O; Hyp = O=C(O)[C@@H]1C[C@@H](O)CN1

T1 sequence (Q9NZQ7 19-290): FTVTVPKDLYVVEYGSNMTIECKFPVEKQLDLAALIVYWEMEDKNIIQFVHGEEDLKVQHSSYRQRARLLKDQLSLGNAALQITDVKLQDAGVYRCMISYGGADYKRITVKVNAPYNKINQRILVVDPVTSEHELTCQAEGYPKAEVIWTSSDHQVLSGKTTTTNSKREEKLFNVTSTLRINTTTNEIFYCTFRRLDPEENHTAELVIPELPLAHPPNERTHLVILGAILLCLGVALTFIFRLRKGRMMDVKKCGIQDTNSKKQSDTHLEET

In the case of `CCCCCOc1ccc(-c2ccc(-c3ccc(C(=O)N[C@H]4C[C@@H](O)[C@@H](O)NC(=O)[C@@H]5[C@@H](O)[C@@H](C)CN5C(=O)[C@H]([C@@H](C)O)NC(=O)[C@H]([C@H](O)[C@@H](O)c5ccc(O)cc5)NC(=O)[C@@H]5C[C@@H](O)CN5C(=O)[C@H]([C@@H](C)O)NC4=O)cc3)cc2)cc1` [anidulafungin] ({pTerphenylCO(4''-OnC5H11)}-[Orn(4R-OH,5R-OH)]T[Hyp][hTyr(3S-OH,4S-OH)]T[Pro(3S-OH,4S-Me)]; lactam 1-C), the pKd is 4.11.
